For five molecules, mass density and Normal boiling temperature results are on record in the NIST ThermoML archive (doi:10.1021/je301220s).

Numbers after ± are expanded uncertainties.

The conditions of this data set: Liquid; for mass density: 298.15 K, 101.33 kPa, Vibrating tube method.

As to `CCC(C)CO` (stereo not given) [2-methyl-1-butanol], the mass density (as a rule, the mass of a sample divided by its volume) was found to be 814.83 ± 0.17 kg/m3 and the Normal boiling temperature is 128.76 ± 0.5 °C.

In the case of `Cc1cccc(C)c1` [1,3-dimethylbenzene], the mass density came to 860.06 ± 0.16 kg/m3 and the Normal boiling temperature came out at 139.13 ± 0.5 °C.

For `Cc1ccccc1C` [1,2-dimethylbenzene], the mass density is recorded as 875.81 ± 0.16 kg/m3 and the Normal boiling temperature was determined as 144.40 ± 0.5 °C.

For `CCc1ccccc1` [ethylbenzene], the mass density amounted to 862.57 ± 0.16 kg/m3 and the Normal boiling temperature came to 136.16 ± 0.5 °C.

For `Cc1ccc(C)cc1` [1,4-dimethylbenzene], the mass density worked out at 856.54 ± 0.16 kg/m3 and the Normal boiling temperature worked out at 138.28 ± 0.5 °C.
